Results: the supplement of paper PMC10331698
± gives the standard deviation of the averaged measurements.

Experiments:
Assay in all cases: level (log10 ratio to DMSO vehicle control); higher = higher biomarker level / cell amount than vehicle control
Perfluorononanoic acid = compound: O=C(O)C(F)(F)C(F)(F)C(F)(F)C(F)(F)C(F)(F)C(F)(F)C(F)(F)C(F)(F)F [Perfluorononanoic acid] (in DMSO)
Description: (§1)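 BioMAP Diversity Plus panel of 12 human primary cell co-culture systems (3C, 4H, LPS, SAg, BT, BF4T, BE3C, CASM3C, HDF3CGF, KF3CT, MyoF, Mphg). Compounds were added 1 h before stimulation and left for 24 h (MyoF 48 h; BT 72 h for soluble read-outs or 6 d for IgG). Biomarkers were read by ELISA, cytotoxicity by SRB, PBMC viability and proliferation by Alamar Blue. Each well value was divided by the mean of 8 DMSO control wells on the same plate and log10 transformed; duplicate blinded samples were tested at 4 concentrations.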

[1] = compound: O=S(=O)(O)CCC(F)(F)C(F)(F)C(F)(F)C(F)(F)C(F)(F)C(F)(F)C(F)(F)C(F)(F)F [8:2 Fluorotelomer sulfonic acid] (in DMSO)
Description: as §1

Perfluoroundecanoic acid = compound: O=C(O)C(F)(F)C(F)(F)C(F)(F)C(F)(F)C(F)(F)C(F)(F)C(F)(F)C(F)(F)C(F)(F)C(F)(F)F [Perfluoroundecanoic acid] (in DMSO); conditions: 6700 nM
Description: as §1

[2] = compound: O=C(O)C(F)(OC(F)(F)C(F)(OC(F)(F)C(F)(OC(F)(F)C(F)(F)C(F)(F)F)C(F)(F)F)C(F)(F)F)C(F)(F)F [Perfluoro-(2,5,8-trimethyl-3,6,9-trioxadodecanoic)acid] (in DMSO)
Description: as §1

[3] = compound: O=S(=O)(O)C(F)(F)C(F)(F)C(F)(F)C(F)(F)C(F)(F)C(F)(F)C(F)(F)F [Perfluoroheptanesulfonic acid] (in DMSO)
Description: as §1

[4] = compound: C=C(C)C(=O)OCCC(F)(F)C(F)(F)C(F)(F)C(F)(F)C(F)(F)C(F)(F)C(F)(F)C(F)(F)F [8:2 Fluorotelomer methacrylate] (in DMSO)
Description: as §1

[5] = compound: OCCC(F)(F)C(F)(F)C(F)(F)C(F)(F)F [4:2 Fluorotelomer alcohol] (in DMSO)
Description: as §1

Row | Test System | level (log10) (Perfluorononanoic acid; 6700 nM) | level (log10) (Perfluorononanoic acid; 20000 nM) | level (log10) ([1]; 6700 nM) | level (log10) ([1]; 20000 nM) | level (log10) ([1]; 60000 nM) | level (log10) (Perfluoroundecanoic acid) | level (log10) ([2]; 1100 nM) | level (log10) ([2]; 3300 nM) | level (log10) ([2]; 10000 nM) | level (log10) ([3]; 1500 nM) | level (log10) ([3]; 4400 nM) | level (log10) ([3]; 13000 nM) | level (log10) ([3]; 40000 nM) | level (log10) ([4]; 6700 nM) | level (log10) ([4]; 20000 nM) | level (log10) ([5]; 6700 nM) | level (log10) ([5]; 20000 nM) | level (log10) ([5]; 60000 nM)
1 | HDF3CGF:TIMP-2 | 0.0105 ± 0.033 | 0.0805 ± 0.026 | -0.003 ± 0.016 | -0.023 ± 0.016 | -0.0475 ± 0.022 | 0.009 ± 0.0042 | 0.011 ± 0.0042 | -0.0035 ± 0.0064 | -0.013 ± 0.047 | -0.0185 ± 0.0064 | -0.0395 ± 0.029 | -0.0115 ± 0.028 | -0.045 ± 0.0014 | -0.001 ± 0.013 | -0.0395 ± 0.012 | -0.0305 ± 0.026 | -0.01 ± 0.017 | -0.044 ± 0.027
2 | KF3CT:CCL2/MCP-1 | -0.0975 ± 0.012 | -0.157 ± 0.03 | -0.0135 ± 0.005 | -0.0585 ± 0.029 | -0.0475 ± 0.011 | -0.075 ± 0.011 | -0.017 ± 0.0099 | -0.049 ± 0.025 | 0.011 ± 0.0099 | -0.0115 ± 0.022 | -0.011 ± 0.011 | 0.0015 ± 0.0021 | 0.0125 ± 0.022 | -0.0235 ± 0.00071 | -0.008 ± 0.033 | -0.001 ± 0.02 | -0.0675 ± 0.035 | 0.009 ± 0.048
3 | KF3CT:CD54/ICAM-1 | -0.0235 ± 0.013 | -0.0455 ± 0.037 | -0.026 ± 0.02 | -0.0495 ± 0.018 | -0.0515 ± 0.005 | -0.019 ± 0.0028 | 0.004 ± 0.0042 | -0.0025 ± 0.0064 | 0.013 ± 0.013 | -0.013 ± 0.0085 | 0.001 ± 0.0099 | -0.0085 ± 0.0078 | 0.0005 ± 0.0078 | -0.017 ± 0.013 | 0.004 ± 0.021 | -0.0115 ± 0.0092 | 0.0015 ± 0.019 | -0.009 ± 0.0057
4 | KF3CT:CXCL8/IL-8 | -0.0045 ± 0.016 | 0.013 ± 0.028 | 0.016 ± 0.038 | -0.03 ± 0.023 | -0.131 ± 0.036 | -0.0315 ± 0.037 | -0.004 ± 0.0099 | -0.01 ± 0.035 | 0.0175 ± 0.056 | 0.001 ± 0.014 | -0.0095 ± 0.03 | 0 ± 0.03 | 0.0065 ± 0.022 | -0.013 ± 0.0071 | -0.0275 ± 0.015 | 0.0025 ± 0.0021 | 0.0185 ± 0.013 | 0.028 ± 0.017
5 | KF3CT:CXCL9/MIG | -0.006 ± 0.027 | -0.007 ± 0.0042 | 0.005 ± 0.017 | 0.003 ± 0.0099 | 0.01 ± 0.0057 | 0.0135 ± 0.018 | 0.0045 ± 0.012 | -0.002 ± 0.0085 | 0.0045 ± 0.0021 | -0.005 ± 0.0071 | -0.006 ± 0.0099 | -0.005 ± 0.0028 | 0.014 ± 0.0042 | -0.0035 ± 0.0092 | 0.004 ± 0.0014 | -0.0055 ± 0.029 | -0.0115 ± 0.021 | -0.0115 ± 0.0035
6 | KF3CT:CXCL10/IP-10 | -0.016 ± 0.018 | -0.0085 ± 0.021 | -0.015 ± 0.0028 | -0.044 ± 0.0042 | -0.0495 ± 0.00071 | -0.054 ± 0.017 | -0.0005 ± 0.0021 | 0.0035 ± 0.0078 | 0.0025 ± 0.011 | 0.006 ± 0.0014 | -0.0045 ± 0.00071 | -0.005 ± 0.0042 | -0.014 ± 0.0028 | -0.0125 ± 0.0035 | -0.011 ± 0.0028 | 0.009 ± 0.04 | -0.0005 ± 0.00071 | 0.019 ± 0.024
7 | KF3CT:IL-1alpha | -0.0365 ± 0.053 | -0.105 ± 0.043 | -0.041 ± 0.027 | -0.137 ± 0.033 | -0.0655 ± 0.046 | -0.026 ± 0.011 | -0.0015 ± 0.005 | -0.0195 ± 0.012 | 0.006 ± 0.0028 | -0.0015 ± 0.0035 | 0.013 ± 0.0071 | 0 ± 0.0028 | 0.0095 ± 0.013 | -0.0145 ± 0.036 | -0.028 ± 0.031 | -0.0325 ± 0.018 | -0.056 ± 0.098 | -0.0665 ± 0.067
8 | KF3CT:MMP-9 | -0.0575 ± 0.053 | -0.097 ± 0.034 | -0.009 ± 0.0014 | 0.0165 ± 0.0078 | -0.0335 ± 0.018 | -0.172 ± 0.027 | -0.0035 ± 0.00071 | -0.022 ± 0.044 | -0.0125 ± 0.016 | 0.0045 ± 0.025 | -0.002 ± 0.0042 | -0.01 ± 0.0042 | 0.0345 ± 0.013 | -0.003 ± 0.023 | -0.014 ± 0.018 | -0.033 ± 0.011 | -0.0435 ± 0.028 | 0.002 ± 0.034
9 | KF3CT:PAI-I | 0.065 ± 0.011 | -0.0095 ± 0.032 | -0.0065 ± 0.022 | -0.029 ± 0.014 | -0.0255 ± 0.019 | -0.11 ± 0.013 | -0.0025 ± 0.0035 | -0.018 ± 0.0071 | 0.006 ± 0.0099 | 0.001 ± 0.028 | 0.002 ± 0.035 | -0.01 ± 0.034 | -0.034 ± 0.0099 | -0.022 ± 0.037 | -0.015 ± 0.013 | -0.0355 ± 0.012 | -0.073 ± 0.027 | 0.041 ± 0.035
10 | KF3CT:SRB | -0.011 ± 0.0057 | -0.0215 ± 0.0021 | -0.008 ± 0.0014 | -0.0145 ± 0.0021 | -0.004 ± 0.0071 | -0.0105 ± 0.0021 | 0.0005 ± 0.011 | 0.0025 ± 0.016 | -0.008 ± 0.0014 | 0.0015 ± 0.005 | -0.0015 ± 0.0064 | -0.0005 ± 0.00071 | -0.0005 ± 0.005 | -0.003 | 0.004 ± 0.0042 | -0.009 ± 0.0071 | -0.009 ± 0.013 | -0.0025 ± 0.00071
11 | KF3CT:TIMP-2 | -0.074 ± 0.027 | -0.002 ± 0.045 | -0.033 ± 0.0042 | 0.0075 ± 0.0064 | 0.0225 ± 0.0021 | 0.0125 ± 0.012 | -0.0075 ± 0.013 | -0.0105 ± 0.011 | -0.001 ± 0.017 | -0.0225 ± 0.013 | -0.0035 ± 0.03 | -0.0195 ± 0.016 | 0.0105 ± 0.0021 | -0.018 ± 0.014 | -0.0335 ± 0.033 | -0.0185 ± 0.14 | -0.0295 ± 0.074 | 0.004 ± 0.054
12 | KF3CT:uPA | 0.0005 ± 0.018 | 0.009 ± 0.011 | 0.007 ± 0.0042 | 0.006 ± 0.024 | 0.012 ± 0.016 | 0.0125 ± 0.018 | 0.01 | 0.0045 ± 0.021 | 0.0075 ± 0.005 | 0.008 | -0.0165 ± 0.00071 | -0.0195 ± 0.005 | -0.0055 ± 0.0021 | -0.0095 ± 0.00071 | -0.0205 ± 0.012 | -0.0105 ± 0.039 | -0.0185 ± 0.0021 | 0.017 ± 0.027
13 | MyoF:CD106/VCAM-1 | -0.0475 ± 0.025 | -0.024 ± 0.016 | -0.0035 ± 0.0021 | -0.0325 ± 0.016 | -0.084 ± 0.02 | -0.079 ± 0.018 | 0 ± 0.0028 | -0.0035 ± 0.0092 | 0.013 ± 0.0099 | -0.01 ± 0.0057 | -0.0015 ± 0.005 | -0.0055 ± 0.015 | 0.0145 ± 0.0021 | -0.0125 ± 0.012 | 0.002 ± 0.011 | -0.0275 ± 0.0078 | -0.024 ± 0.0042 | -0.0225 ± 0.064
14 | MyoF:CXCL8/IL-8 | -0.03 ± 0.079 | 0.0445 ± 0.044 | -0.0085 ± 0.03 | -0.0885 ± 0.046 | -0.157 ± 0.016 | 0.0245 ± 0.0092 | 0.0475 ± 0.077 | 0.005 ± 0.0028 | -0.006 ± 0.016 | 0.0195 ± 0.011 | 0.022 ± 0.011 | 0.026 | 0.032 ± 0.023 | 0.0095 ± 0.025 | 0.004 ± 0.0085 | -0.039 | -0.0475 ± 0.0021 | 0.0435 ± 0.0078
